This passage reports IC50 results from patent publication US20230416261A1, “ETHANEDIAMINE-HETEROCYCLE DERIVATIVES AS INHIBITORS OF PROTEIN ARGININE METHYLTRANSFERASES” (Board of Regents, The University of Texas System, priority 2021, published 2023).

Molecules are shown by their SMILES.

The term IC50 denotes the concentration that gives 50% inhibition.

One experiment concerns DOHH2 cells. Kind of experiment: DOHH2 Long Term Phenotypic Assay (7 days, Cell Titer-Glo viability). The experiment is classed as cell-based. The settings on record: Homo sapiens, DOHH-2, 168 h, Cell Titer-Glo 2.0. Summed up:
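DOHH2 lymphoma cells (250 per well) in RPMI-1640 with 10% FBS were exposed to 1:3 serially diluted compounds for 7 days at 37 °C, 5% CO2. Viability was read by CellTiter-Glo 2.0 luminescence, and IC50 values came from four-parameter logistic fits.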
On the technique in general: ATP-based viability assays read luminescence as a measure of living cells.

Experiment [1] addresses T1, PRMT1 (Homo sapiens, UniProt Q99873). Kind of experiment: PRMT1 Enzymatic Assay (LANCE TR-FRET, methylation of histone H4 at Arg3). The experiment is classed as biochemical. Details: purchased SignalChem P365-380G. Conditions: PRMT1 1.5 nM, SAM 1 μM, biotinylated histone H4 (1-21) 25 nM; read-out: PRMT-1 IC50. Summed up: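 PRMT1 (1.5 nM) preincubated 15 min with compound at room temperature, then reacted 1 h with 1 μM SAM and 25 nM biotinylated histone H4 (1-21) in 50 mM Hepes pH 8, 1 mM TCEP, 0.003% Tween-20. H4R3me detected by TR-FRET (665/620 nm ratio); IC50 from four-parameter logistic fit.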
In general terms: TR-FRET usually uses a lanthanide donor and a delayed reading to cut background.

Experiment [2] concerns the target T1, PRMT1. Kind of experiment: PRMT1 RKO Cellular Target Engagement Assay (In-Cell Western, asymmetric di-methyl arginine). The experiment is classed as cell-based. The settings on record: RKO cells, 48 hr compound incubation; read-out: RKO IC50 (PRMT-1 Target Engagement). A digest of the protocol: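 RKO cells (1,000/well) received 1:3 serially diluted compound for 48 h at 37 °C, then were fixed, permeabilised and immunostained for asymmetric di-methyl arginine by In-Cell Western. The 800 nm antibody signal was normalised to CellTag 700 nm; IC50 from four-parameter logistic fit.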

Another experiment deals with PATC53 cells. Kind of experiment: PATC53 Long Term Phenotypic Assay (14 days, crystal violet viability). It counts as cell-based. The settings on record: 336 h. A digest of the protocol:
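Cells seeded at 250 per well, allowed 24 h to settle, then treated with 1:3 serial dilutions of compound for 14 days at 37 °C, 5% CO2. Viability measured by crystal violet staining, solubilised in 10% HOAc, absorbance 590 nm; IC50 from four-parameter logistic fit.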

T1 sequence (Q99873 whole entry): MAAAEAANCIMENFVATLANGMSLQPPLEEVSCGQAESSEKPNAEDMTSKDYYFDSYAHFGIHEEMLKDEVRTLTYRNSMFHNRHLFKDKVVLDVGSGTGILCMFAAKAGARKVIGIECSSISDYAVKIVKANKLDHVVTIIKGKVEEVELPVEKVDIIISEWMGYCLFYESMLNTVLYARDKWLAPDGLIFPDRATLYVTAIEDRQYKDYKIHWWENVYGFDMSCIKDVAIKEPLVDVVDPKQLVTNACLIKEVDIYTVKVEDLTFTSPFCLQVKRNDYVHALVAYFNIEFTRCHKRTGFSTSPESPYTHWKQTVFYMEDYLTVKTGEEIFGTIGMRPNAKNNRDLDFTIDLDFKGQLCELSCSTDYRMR

For `CNCCN(C)Cc1nn2c(c1C1CCC(COC)(COC)CC1)CN(C(=O)C(C)(F)F)CC2` [Example 36, 1-(3-(4,4-bis(methoxy-methyl)cyclohexyl)-2-((methyl(2-(methylamino)-ethyl)amino)methyl)-6,7-dihydropyrazolo[1,5-a]-pyrazin-5(4H)-yl)-2,2-difluoropropan-1-one], the IC50 with DOHH2 cells is 190 nM; at PRMT1 [1], 50 nM; on PRMT1 [2] it was 269 nM; with PATC53 cells it was 246 nM.

On to `CNCCN(C)Cc1nn2c(c1C1CCC(COC)(COC)CC1)CN(C(=O)C(C)(C)C#N)CC2` [Example 37, 3-(3-(4,4-bis(methoxy-methyl)cyclohexyl)-2-((methyl(2-(methylamino)-ethyl)amino)methyl)-6,7-dihydropyrazolo[1,5-a]-pyrazin-5(4H)-yl)-2,2-dimethyl-3-oxopropanenitrile], for which the IC50 stood at 142 nM in the experiment on DOHH2 cells, 90 nM on PRMT1 [1], 237 nM at PRMT1 [2] and 171 nM in the experiment with PATC53 cells.

Take `CNCCN(C)Cc1nn2c(c1C1CCC(COC)(COC)CC1)CN(C(=O)C(C)C#N)CC2` (centres unmarked) [Example 38, 3-(3-(4,4-bis(methoxy-methyl)cyclohexyl)-2-((methyl(2-(methylamino)-ethyl)amino)methyl)-6,7-dihydropyrazolo[1,5-a]-pyrazin-5(4H)-yl)-2-methyl-3-oxopropanenitrile]: the IC50 is 83 nM in the experiment with DOHH2 cells, 103 nM on PRMT1 [1], 690 nM at PRMT1 [2] and 580 nM with PATC53 cells.

Consider `CNCCN(C)Cc1nn2c(c1C1CCC(COC)(COC)CC1)CN(C(=O)C1CC(C)(C)C1)CC2` [Example 39, (3-(4,4-bis(methoxymethyl)-cyclohexyl)-2-((methyl(2-(methylamino)ethyl)amino)-methyl)-6,7-dihydropyrazolo-[1,5-a]pyrazin-5(4H)-yl)(3,3-dimethylcyclobutyl)-methanone], for which the IC50 in the experiment on DOHH2 cells came to 108 nM; on PRMT1 [1] it was 79 nM; at PRMT1 [2], 177 nM; in the experiment with PATC53 cells it was 49 nM.

As for `COCC1(COC)CCC(c2c(CN(C)CCN)nn3c2CN(C(=O)C2CC(F)(F)C2)CC3)CC1` [Example 40, (2-(((2-aminoethyl)(methyl)-amino)methyl)-3-(4,4-bis-(methoxymethyl)cyclohexyl)-6,7-dihydropyrazolo[1,5-a]-pyrazin-5(4H)-yl)(3,3-difluorocyclobutyl)-methanone], the IC50 was 249 nM with DOHH2 cells, 54 nM at PRMT1 [1], 1520 nM on PRMT1 [2] and 304 nM in the experiment with PATC53 cells.

Turning to `CNCCN(C)Cc1nn2c(c1C1CCC(COC)(COC)CC1)CN(C(=O)C1(C#N)CCC1)CC2` [Example 41, 1-(3-(4,4-bis(methoxy-methyl)cyclohexyl)-2-((methyl(2-(methylamino)-ethyl)amino)methyl)-4,5,6,7-tetrahydropyrazolo[1,5-a]-pyrazine-5-carbonyl)cyclobutane-1-carbonitrile], the IC50 in the experiment with DOHH2 cells amounted to 91 nM; on PRMT1 [1], 72 nM; on PRMT1 [2], 180 nM; with PATC53 cells it was 175 nM.

`COCC1(COC)CCC(c2c(CN(C)CCN)nn3c2CN(C(=O)C2CCCC2)CC3)CC1` [Example 42, (2-(((2-aminoethyl)(methyl)-amino)methyl)-3-(4,4-bis-(methoxymethyl)cyclohexyl)-6,7-dihydropyrazolo[1,5-a]-pyrazin-5(4H)-yl)-(cyclopentyl)methanone]: the IC50 was determined as 180 nM in the experiment with DOHH2 cells, 29 nM on PRMT1 [1], 431 nM on PRMT1 [2] and 136 nM in the experiment on PATC53 cells.

In the case of `COCC1(COC)CCC(c2c(CN(C)CCN)nn3c2CN(C(=O)C(C)C)CC3)CC1` [Example 43, 1-(2-(((2-aminoethyl)-(methyl)amino)methyl)-3-(4,4-bis(methoxymethyl)-cyclohexyl)-6,7-dihydro-pyrazolo[1,5-a]pyrazin-5(4H)-yl)-2-methylpropan-1-one], the IC50 is 185 nM in the experiment with DOHH2 cells, 27 nM on PRMT1 [1], 460 nM on PRMT1 [2] and 149 nM with PATC53 cells.

As for `COCC1(COC)CCC(c2c(CN(C)CCN)nn3c2CN(C(=O)C24CC(C2)C4)CC3)CC1` [Example 44, (2-(((2-aminoethyl)(methyl)-amino)methyl)-3-(4,4-bis-(methoxymethyl)cyclohexyl)-6,7-dihydropyrazolo[1,5-a]-pyrazin-5(4H)-yl)(bicyclo-[1.1.1]pentan-1-yl)methanone], the IC50 turned out to be 150 nM with DOHH2 cells, 17 nM on PRMT1 [1], 210 nM on PRMT1 [2] and 123 nM with PATC53 cells.

With `COCC1(COC)CCC(c2c(CN(C)CCN)nn3c2CN(C(=O)C24CC(F)(C2)C4)CC3)CC1` [Example 45, (2-(((2-aminoethyl)(methyl)-amino)methyl)-3-(4,4-bis-(methoxymethyl)cyclohexyl)-6,7-dihydropyrazolo[1,5-a]-pyrazin-5(4H)-yl)(3-fluorobicyclo[1.1.1]pentan-1-yl)methanone], the IC50 in the experiment on DOHH2 cells was 175 nM; at PRMT1 [1], 18 nM; at PRMT1 [2], 830 nM; in the experiment with PATC53 cells, 178 nM.

As to `COCC1(COC)CCC(c2c(CN(C)CCN)nn3c2CN(C(=O)C2(C(F)(F)F)CC2)CC3)CC1` [Example 46, (2-(((2-aminoethyl)(methyl)-amino)methyl)-3-(4,4-bis-(methoxymethyl)cyclohexyl)-6,7-dihydropyrazolo[1,5-a]-pyrazin-5(4H)-yl)(1-(trifluoro-methyl)cyclopropyl)-methanone], the concentration for half-maximal inhibition (IC50) in the experiment on DOHH2 cells is 288 nM; at PRMT1 [1] it was 29 nM; on PRMT1 [2], 486 nM; in the experiment with PATC53 cells, 294 nM.

For `COCC1(COC)CCC(c2c(CN(C)CCN)nn3c2CN(C(=O)C2(F)CC2)CC3)CC1` [Example 47, (2-(((2-aminoethyl)(methyl)-amino)methyl)-3-(4,4-bis-(methoxymethyl)cyclohexyl)-6,7-dihydropyrazolo[1,5-a]-pyrazin-5(4H)-yl)(1-fluorocyclopropyl)methanone], the IC50 with DOHH2 cells was 187 nM; at PRMT1 [1] it was 15 nM; on PRMT1 [2], 671 nM; with PATC53 cells, 45 nM.

In the case of `CNCCN(C)Cc1nn2c(c1C1CCC(COC)(COC)CC1)CN(C(=O)C1CCC(OC)CC1)CC2` (centres unmarked) [Example 48, (3-(4,4-bis(methoxymethyl)-cyclohexyl)-2-((methyl(2-(methylamino)ethyl)amino)-methyl)-6,7-dihydropyrazolo-[1,5-a]pyrazin-5(4H)-yl)(4-methoxycyclohexyl)-methanone], the IC50 in the experiment with DOHH2 cells was 284 nM; on PRMT1 [1], 156 nM; at PRMT1 [2] it was 1410 nM; in the experiment on PATC53 cells, 247 nM.

For `COCC1(COC)CCC(c2c(CN(C)CCN)nn3c2CN(C(=O)C2(F)CCC2)CC3)CC1` [Example 49, (2-(((2-aminoethyl)(methyl)-amino)methyl)-3-(4,4-bis-(methoxymethyl)cyclohexyl)-6,7-dihydropyrazolo[1,5-a]-pyrazin-5(4H)-yl)(1-fluoro-cyclobutyl)methanone], the IC50 in the experiment on DOHH2 cells turned out to be 166 nM; at PRMT1 [1] it was 13 nM; at PRMT1 [2], 329 nM; with PATC53 cells, 118 nM.

As for `COCC1(COC)CCC(c2c(CN(C)CCN)nn3c2CN(C(=O)C2CCC(F)(F)CC2)CC3)CC1` [Example 50, (2-(((2-aminoethyl)(methyl)-amino)methyl)-3-(4,4-bis-(methoxymethyl)cyclohexyl)-6,7-dihydropyrazolo[1,5-a]-pyrazin-5(4H)-yl)(4,4-difluorocyclohexyl)-methanone], the IC50 is 171 nM with DOHH2 cells, 17 nM at PRMT1 [1], 1240 nM at PRMT1 [2] and 154 nM in the experiment on PATC53 cells.

`CNCCN(C)Cc1nn2c(c1C1CCC(COC)(COC)CC1)CN(C(=O)C1CC(F)(F)C1)CC2` [Example 53, (3-(4,4-bis(methoxymethyl)-cyclohexyl)-2-((methyl(2-(methylamino)ethyl)amino)-methyl)-6,7-dihydropyrazolo-[1,5-a]pyrazin-5(4H)-yl)(3,3-difluorocyclobutyl)-methanone]: the IC50 worked out at 87 nM in the experiment with DOHH2 cells, 68 nM on PRMT1 [1], 1110 nM at PRMT1 [2] and 42 nM in the experiment with PATC53 cells.

For `CNCCN(C)Cc1nn2c(c1C1CCC(COC)(COC)CC1)CN(C(=O)C1CC(OC)C1)CC2` (centres unmarked) [Example 58, (3-(4,4-bis(methoxymethyl)-cyclohexyl)-2-((methyl(2-(methylamino)ethyl)amino)-methyl)-6,7-dihydropyrazolo-[1,5-a]pyrazin-5(4H)-yl)(3-methoxycyclobutyl)-methanone], the IC50 in the experiment on DOHH2 cells was 131 nM; at PRMT1 [1] it was 65 nM; at PRMT1 [2], 372 nM; in the experiment with PATC53 cells, 131 nM.
